# Measurements published in US20240050526A1, “CATH2 DERIVATIVES FOR STIMULATING INNATE IMMUNE MEMORY” (priority 2020, published 2024).
# Square brackets hold non-standard residues; d marks the D form. Ends that are not written are not given here.
# Experiments:
# [1] = test system: dTHP-1 cells; experiment: Innate immune training of dTHP-1 cells by cathelicidin peptides, cytokine ELISA after TLR agonist re-stimulation; type: cell-based, human
# Experimental: THP-1 cells were cultured in Iscove Modified Dulbecco Media (IMDM, Gibco) containing Glutamax-I, sodium pyruvate, 10% fetal calf serum at 37° C. and 5% CO2. For differentiation to macrophage-like cells, THP-1 cells were grown in IMDM/FCS medium containing 8 of 100 nM PMA and seeded in 96 wells (5×10^4 cells/well), 24 wells (3×10^5 cells/well) or 6 wells plates (1×10^6 cells/well) during 48 h. Subsequently, dTHP-1 were washed with pre-warmed IMDM/FCS, left overnight to rest and primed during 1 to 24 h with 2-10 μM peptides of fresh IMDM/FCS medium, washed 3 times in medium. After 3 days rest cells were stimulated with various stimuli: S. minnesota LPS (10 ng/ml), E. coli LPS (10 or 50 ng/ml), Pam3CSK4 (1 μg/ml) or Pam2CSK4 (1 μg/ml). After 24 h supernatants were collected and stored at −20° C. For inhibition, dTHP-1 cells were pre-incubated for 1 h before priming and during priming with rapamycin (10 nM), AICAR (50 nM), metformin (0.3 mM), wortmannin (1 μM), ascorbate (50 μM), SB203580 (10 μM), PD98059 (10 μM), SP600125 (10 μM), EGCG (40 μM), anacardic acid (50 μM), curcumin (10 μM), garcinol (10 μM), Bay-11-7085 (10 μM), MTA (1 mM), MM-102 (25 μM), suramin (50 μM), KN-62 (3 μM), nystatin (10 μg/ml), and chlorpromazine (10 μM).
# TNFα, IL-6, CXCL10 and CCL5 production were measured using ELISA (R&D systems) following instructions of the manufacturer.
# Extrapolating from the trained immunity experiments with human monocytes, we examined if mature cathelicidin peptides could induce trained immunity in TH P-1 cells, a human monocyte cell line. TH P-1 cells were differentiated with 100 nM or 8 nM phorbol 12-myristate 13-acetate (PMA) during 48 h washed 3 times and, after overnight rest, primed with 2-10 μM of chicken cathelicidin 2 (CATH-2), its full D-analog DCATH-2 or human cathelicidin LL-37 for 24 h. Subsequently, dTHP-1 cells were washed 3 times and re-stimulated after a 3-day rest period with TLR agonists (24 h) (FIG. 1a). […] Priming with 5 μM of its full-D-amino acid analog DCATH-2 amplified 2- to 3-fold the TNFα and IL-6 production in response to LPS stimulation. A minor response was found for priming with 10 μM LL-37, which amplified IL-6 production 1.4-fold in 100 nM differentiated cells.
# [2] = test system: Salmonella enteritidis 706; experiment: Antibacterial activity (intracellular killing) of DCATH-2 primed dTHP-1 cells; type: cell-based, Salmonella enterica subsp. enterica serovar enteritidis; settings: 24 h DCATH-2 training; colonies after 24 h
# Experimental: Antibacterial activity was determined according to Tang et al.. dTHP-1 cells were seeded in 6 well plates and primed with DCATH-2 or medium as described. Log-phase culture of Salmonella enterica subsp. enterica serovar enteritidis 706 (Se706) was added to each well at a MOI of 1. After 2 h incubation at 37° C., cells were washed twice with warm DPBS and further incubated for 1 h incubation at 37° C. with IMDM/FCS medium containing 300 μg/ml colistin. After incubation, cells were washed 3 times in DPBS and the lysed with 1% triton X-100. Well contents were serially diluted in tryptone soy broth (Oxoid), plated on tryptone soy agar and counted after 24 h at 37° C.
# [3] = test system: dTHP-1 cells; experiment: Metabolomics of DCATH-2 trained dTHP-1 cells; type: cell-based, human
# Experimental: dTHP-1 cells were seeded (1×10^6 cells/well) in 6 wells plates and primed during 24 h with 5 μM DCATH-2 as described using medium as control. Cell supernatants, cell lysates and medium controls were collected before and after 24 h priming in the absence and presence of 10 nM rapamycin, after washing followed by 3 days rest and after subsequent 24 h LPS (E. coli O111:B4) stimulation. For sample collections, cells were washed once in ice-cold PBS, lysed with by adding 1 ml cold methanol/acetonitrile/water (2:2:1) lysis buffer, scraped and transferred in to vials. Cell supernatants and medium control samples (10 μl) were directly mixed with 200 μl lysis buffer. Samples were shaken for 10 min at 4° C. and centrifuged for 15 min at 18,000×g and 4° C. Supernatants were flash frozen in liquid nitrogen and stored at −80° C. for analysis. Liquid chromatography-mass spectrometry analysis was performed using an Exactive mass spectrometer (Thermo Scientific), coupled to a Dionex Ultimate 3000 auto sampler and pump (Thermo Scientific). The mass spectrometry operated in polarity-switching mode with spray voltages of 4.5 and −3.5 kV. Metabolites were separated using a Sequant ZIC-pHILIC column (2.1×150 mm, […], guard column 2.1×20 mm, […]; Merck) using a linear gradient of acetonitrile and eluent A 20 mM (NH4)2CO3, 0.1% NH40H in ULC/MS grade water (Biosolve BV, Valkenswaard, The Netherlands) and a flow rate of 150 μl/min. Metabolites were identified and peak intensities quantified using LCquan software (Thermo Scientific) on the basis of exact mass within 5 ppm and further validated by concordance with retention times of commercially available standards. Peak intensities were normalized on cell counts of parallel wells before and after LPS stimulation.
# [4] = test system: avian pathogenic E. coli; settings: prophylactic in ovo injection of chicken embryos; cited from earlier work
# [5] = test system: Salmonella enterica; settings: injected into the yolk of zebrafish embryos, intravenous infection; cited from earlier work
# [6] = 5 μM, 24 h priming, 3 days rest
# [7] = after 24 h E. coli LPS stimulation
substance,measurement,setting,value
"rfgrflrkirrfrpkvtitiqgsarf-NH2 ([dR][dF]G[dR][dF][dL][dR][dK][dI][dR][dR][dF][dR][dP][dK][dV][dT][dI][dT][dI][dQ]G[dS][dA][dR][dF]-NH2; N-terminus assumed; SMILES CC[C@@H](C)[C@@H](NC(=O)[C@@H](CCCCN)NC(=O)[C@@H](CCCNC(=N)N)NC(=O)[C@@H](CC(C)C)NC(=O)[C@@H](Cc1ccccc1)NC(=O)[C@@H](CCCNC(=N)N)NC(=O)CNC(=O)[C@@H](Cc1ccccc1)NC(=O)[C@H](N)CCCNC(=N)N)C(=O)N[C@H](CCCNC(=N)N)C(=O)N[C@H](CCCNC(=N)N)C(=O)N[C@H](Cc1ccccc1)C(=O)N[C@H](CCCNC(=N)N)C(=O)N1CCC[C@@H]1C(=O)N[C@H](CCCCN)C(=O)N[C@@H](C(=O)N[C@@H](C(=O)N[C@@H](C(=O)N[C@@H](C(=O)N[C@@H](C(=O)N[C@H](CCC(N)=O)C(=O)NCC(=O)N[C@H](CO)C(=O)N[C@H](C)C(=O)N[C@H](CCCNC(=N)N)C(=O)N[C@H](Cc1ccccc1)C(N)=O)[C@H](C)CC)[C@H](C)O)[C@H](C)CC)[C@H](C)O)C(C)C) [DCATH-2, full D-amino acid analog of CATH-2]",TNFα and IL-6 production after re-stimulation with TLR2 and TLR4 ligands,"[1]; 5 μM, re-stimulation with E. coli O111:B4 LPS, Pam3CSK4 or Pam2CSK4",amplified
same,production of CCL5 and CXCL10,"[1]; 5 μM, re-stimulation with TLR2 and TLR4 agonists",not altered
same,basal production levels of TNFα and IL-6,"[1]; 24 h priming (2.5-5 μM DCATH-2), 3 days rest, no re-stimulation",not altered
same,priming time reaching highest level of training,"[1]; TNFα amplification, re-stimulation with 1 μg/ml Pam3CSK4",24 h
same,inhibition of outgrowth of Salmonella enteritidis vs non-primed dTHP-1 cells,[2],78±11%
same,TCA cycle and urea cycle,[3]; [6],not significantly affected
same,de novo pyrimidine synthesis,[3]; [6],increased
same,glycolysis (metabolic intermediates),[3]; [6],increased
same,intracellular glucose concentrations,[3]; [6],lower
same,intracellular lactate levels,[3]; [6],higher
same,lactate secretion into the medium,[3]; [6],augmented
same,levels of intracellular medium-chain and long-chain acylcarnitines,[3]; [6],dramatically increased
same,usage of amino acids,[3]; [6],overall enhanced usage
same,"TCA cycle, urea cycle or amino acid metabolism",[3]; LPS stimulation of trained cells,did not affect
same,intracellular levels of medium-chain and long-chain acylcarnitines,[3]; [7],remained elevated
same,training induced metabolic shift during LPS stimulation,[3]; [7],maintained
same,colibacilossis-associated mortality and morbidity,[4],considerably reduced
same,mortality after lethal dose of Salmonella enterica,[5],delayed mortality
